Assays:
HBV HBsAg = assay: Comparison and combined use of Ky-2208 and tenofovir (TDF) in HBV transgenic (HBV-Tg) mice, HBsAg; format: in vivo; details: Ky-2208 3 or 9 mpk sc single, TDF 15 mpk po daily, d7-d28
Method: Experimental procedures: 48 HBV-Tg male mice with a body weight of 25-35 g and a week age of 8-13 w, were raised in an animal room that meets the SPF standard, with a temperature of 16-26° C., a humidity of 40-70% and circulating light (12 hours in light and dark respectively), and were free to eat and drink water. The solvent for formulation of the compound was normal saline, and the concentration of the working solution was 0.75 mg/mL. […] The experiment consisted of 6 groups, including one control group ([…]) and 5 administration groups. The drug was administered once on the day of d0, and mice in each group were subcutaneously injected with 0.04 mL/10 g of the corresponding test solution on d0. Whole blood was collected through the orbital venous plexus of mice on d0 before administration and d7, d14, d21 and d28 after administration, and centrifuged at 3000×g for 5 minutes. Supernatant was sampled on d0, d7, d14, d21 and d28 to detect HBV HBsAg.

HBsAg = assay: Ky-22 combined with entecavir or interferon in HepG2.2.15 cells, HBsAg; format: cell-based, HBV; details: 72 hours, ETV 0.1-10 μM, IFN-α 10-1000 IU/mL, Ky-22 0.125 μg/mL
Method: (§1) The experiment was conducted in the widely used HepG2.2.15 cell line to evaluate the inhibitory effect of the RNA inhibitor of the present invention in combination with different concentrations of entecavir (ETV) or interferon (IFN-a) on HBV.
(§2) Experimental procedures: DMEM medium containing 10% fetal bovine serum was prepared. Media containing 10 nM RNA inhibitor Ky-22 was prepared from a culture medium. HepG2.2.15 cells were inoculated at a cell density of […] and cultured in the DMEM medium with 10% fetal bovine serum at 37° C. under 5% CO2 for 24 hours, added with the drug for intervention, and incubated for 72 hours. The supernatant was sampled to detect HBsAg, HBeAg and HBV DNA. The relative percentages of HBsAg, HBeAg, and HBV DNA in the sample intervention groups were calibrated by compared with the supernatant of HepG2.2.15 cells without intervention.

HBeAg = assay: Ky-22 combined with entecavir or interferon in HepG2.2.15 cells, HBeAg; format: cell-based, HBV; details: 72 hours, ETV 0.1-10 μM, IFN-α 10-1000 IU/mL, Ky-22 0.125 μg/mL
Method: as §1, §2

| Compound | reduction of HBsAg level (HBV HBsAg) | inhibitory effect on HBsAg (HBsAg) | inhibitory effect on HBeAg (HBeAg) |
| --- | --- | --- | --- |
| CC(C)OC(=O)OCOP(=O)(CO[C@H](C)Cn1cnc2c(N)ncnc21)OCOC(=O)OC(C)C.O=C(O)/C=C/C(=O)O [TDF, Tenofovir] | no inhibitory effect |  |  |
| C=C1[C@H](CO)[C@@H](O)C[C@@H]1n1cnc2c(=O)[nH]c(N)nc21 [entecavir] |  | no significant inhibitory effect | no significant inhibitory effect |
| C[C@H](Cn1cnc2c(N)ncnc21)OCP(=O)(O)O [tenofovir (TDF), tenofovir] | does not have the efficacy of reducing HBsAg level |  |  |

Reference: patent US20240175029A1, “RNA INHIBITOR FOR INHIBITING HEPATITIS B VIRUS GENE EXPRESSION AND APPLICATION THEREOF” (priority 2021, published 2024)
